Values of other authors as cited in patent US7317127B2, “Process for the optical resolution and recycling of tomoxetine” (Teva Pharmaceutical Fine Chemicals S.r.l, priority 2004, dated 2008).

Conditions: as disclosed in U.S. Pat. No. 4,018,895, EP 0 052 492, EP 0 721 777

For CNCC[C@@H](Oc1ccccc1C)c1ccccc1 [Atomoxetine, (R)(−)-N-methyl-3-(2-methylphenoxy)-3-phenylpropylamine], the “effectiveness relative to the (+)-enantiomer” value (versus (S)-(+)-tomoxetine) is given as “about nine times more effective than the (+)-enantiomer” and the “effectiveness relative to the racemic mixture” value (versus racemic tomoxetine) is given as “about twice as effective as the racemic mixture”.
